Laboratory results: patent publication US7445909B2, “Method for detecting reactive metabolites using a combination of glutathione and a stable isotopic derivative of glutathione and mass spectroscopy-based pattern recognition” (Janssen Phamaceutica N.V., priority 2004, dated 2008)

What was measured:
[1] = system: human microsomal proteins; experiment: Stable isotope (GSH/GSX) trapping of reactive metabolites in microsomal incubation, LC-MS/MS neutral loss scanning of 129 Da; type: in vitro ADME; conditions: 10 μM test compound, 1 mg/mL human microsomal proteins, 1 mM GSH and GSX (1:1), NADPH generating system, 60 min, 37° C., pH 7.4
Experimental: All microsomal incubations described herein were performed at 37° C. in a water bath. […] Alternatively, the reaction mixtures were subjected to liquid-liquid extractions to recover the metabolites from supernatants.
MS analyses were performed on a Micromass (Manchester, UK) Quattro Micro triple quadrupole mass spectrometer.
For complete profiling of reactive metabolites, samples were first subjected to chromatographic separations with an Agilent 1100 HPLC system with an auto-sampler (Agilent Technologies, Palo Alto, Calif.), and eluents were introduced to the Quattro Micro triple quadrupole mass spectrometer operated in the neutral loss scanning mode. An Agilent Zorbax SB C18 column (2.1×50 mm) was used for the chromatographic separation. […] At 7 min, the column was flushed with 95% acetonitrile for 2 min before re-equilibration at initial conditions. […] Data were processed using the Masslynx version 4.0 software from Micromass.

[2] = system: human microsomal proteins; experiment: Stable isotope (GSH/GSX) trapping of reactive metabolites in microsomal incubation, FIA-MS/MS neutral loss scanning of 129 Da; type: in vitro ADME; conditions: 10 μM test compound, 1 mg/mL human microsomal proteins, 1 mM GSH and GSX (1:1), 60 min, 37° C.; flow injection FIA-MS/MS, analysis within 30 sec
Experimental: All microsomal incubations described herein were performed at 37° C. in a water bath. The test compound (or drug candidate) was mixed with human microsomal proteins in 50 mM potassium phosphate buffer (pH 7.4) supplemented with GSH and GSX that were pre-mixed at an equal molar ratio of 1:1. Reaction mixtures were then warmed at 37° C. for 5 min. The reactions were initiated by the addition of a NADPH generating system to yield a final volume of 1000 μL. The final reaction mixtures contained 10 μM test compounds, 1 mg/mL microsomal proteins, 1 mM GSH and GSX, 1.3 mM NADP^+, 3.3 mM glucose-6-phosphate, 0.4 U/ml glucose-6-phosphate dehydrogenase, 3.3 mM magnesium chloride. After a 60 min incubation, the reactions were terminated by the addition of 150 μL of trichloroacetic acid (10%). The samples were centrifuged at 10,000 g for 15 min at 4° C. to pellet the precipitated protein, and the supernatants were subjected to solid-phase extractions. […]
For rapid screening of reactive metabolites (as described in Example 11), cleaned samples were directly injected to the mass spectrometer that was operated in the neutral scanning mode. […] After a glutathione conjugate was detected, CID MS/MS spectrum was subsequently acquired to determine the structure of the glutathione conjugate. […]

Compound	detection of reactive metabolites (characteristic isotopic doublet of GSH/GSX adducts in neutral loss mass spectrum) [1]	detection of reactive metabolite (characteristic isotopic doublet of GSH/GSX adducts in neutral loss mass spectrum) [2]
C[C@]12CC[C@@H]3c4ccc(O)c(O)c4CC[C@H]3[C@@H]1CCC2=O [4-Hydroxyestrone]	only one component at a retention time of 5.11 min displayed characteristic doublet	the reactive metabolite was detected
O=C(O)Cc1ccccc1Nc1c(Cl)cccc1Cl [Diclofenac]	two reactive metabolites were co-eluted	–
NC(=O)OCC(COC(N)=O)c1ccccc1 [Felbamate]	no reactive metabolites were formed	–
